Converted amounts (≈) assume the structure as drawn.
Target: α-glucosidase
Assay: in vitro α-glucosidase inhibition assay, absorbance at […] nm
Assay type: biochemical, Saccharomyces cerevisiae

## O=C1NC2=C(C(=O)N(Cc3ccccc3)C2)C(c2ccc(O)cc2)N1 (stereo not shown) [A, 6-benzyl-4-(4-hydroxyphenyl)-3,4,6,7-tetrahydro-1H-pyrrolo[3,4-d]pyrimidine-2,5-dione]
  IC50: 1.02 µg/mL (≈ 3.04 µM)

— paper PMC9596752, “Investigation of anti-diabetic potential and molecular simulation studies of dihydropyrimidinone derivatives” (Frontiers in Endocrinology, 2022)
